Experiments:
[1] = system: rumen contents (lactic acid accumulation); assay: Inhibition of lactic acid accumulation, second batch culture fermentation of rumen contents with glucose; format: cell-based, bovine (rumen fistulated); conditions: 6 h, 39° C.; for Lactic Acid Accumulation: Table 6, 0 μg/ml: 36.65; for Lactic Acid Accumulation (μ mol/ml): Table 8, 0 μg/ml: 40.47
Protocol: Inhibition of lactic acid accumulation is determined using a second batch culture fermentation system. Rumen contents from a rumen fistulated bovine are mixed with an equal amount of buffer which contains a 150 mM concentration of glucose. Following 6 hours of incubation at 39° C., lactic acid produced in the fermentation is analyzed by a specific enzymatic assay. The concentration of lactic acid in the fermentation broth is quantified by the increase in absorbance of light at […] when nicotinamide adenine dinucleotide is reduced by lactic acid with the aid of lactate dehydrogenase. […]
(§1) The procedure of Example 2 was followed to compare laidlomycin (L.), sodium L. (Na L.), L.-propionate (L.C3), L. butyrate (L.C4), L. isobutyrate (L. isoC4), L. pentanoate (L.C5) and L. hexanoate (L.C6).
(§2) The procedure of Example 2 was followed to compare the activities of L. heptanoate (L. C7), L. octanoate (L. C8), L. decanoate (L. C10) and L. dodecanoate (L. C12) in increasing propionic acid production and inhibiting lactic acid production.
(§3) The procedure of Example 2 was followed to compare the activities of laidlomycin (L.) acetate (L. C2), L. pentanoate (L. C5), L. stearate (L. C18), L. cyclobutylcarboxylate, L. cyclopentylcarboxylate, L. cyclohexylcarboxylate and L. cyclopropylcarboxylate.

[2] = system: rumen microorganisms (mixed microbial population of rumen contents); assay: Enhancement of intraruminal propionic acid production, batch culture fermentation of rumen contents; format: cell-based, bovine (rumen-fistulated); conditions: 9 h, 39° C.
Protocol: Enhancement of intraruminal propionic acid production is determined using a batch culture fermentation system. Rumen contents from a rumen-fistulated bovine are mixed with an equal amount of buffer which contains mineral, energy and nitrogen sources required for continued growth and metabolism of the mixed microbial population. Aliquots of this inoculum then are transferred to incubation vessels containing appropriate amounts of sodium laidlomycin (Na L.) (see Example 1A), and L. butyrate (L.C4) (prepared according to the procedure of Example 1A). After 9 hours of incubation at 39° C., concentrations of individual volatile fatty acids in each incubation vessel are determined by gas-liquid chromatography. The net production of each individual volatile fatty acid (acetic [AA], propionic [PA] and butyric [BA]) is calculated as the difference between the concentration after incubation and the concentration before incubation. The molar percentage of propionic acid produced is calculated from the following equation: [formula]
The comparative activities of sodium laidlomycin (Na L.) and the laidlomycin butyrate upon propionic acid and lactic acid production are set forth in Tables 1 and 2 where the concentration is in micrograms per ml (μg/ml).
as §1, §2, §3

[3] = Table 5, 1.25 μg/ml, 0 μg/ml: 35.5
[4] = Table 5, 2.5 μg/ml, 0 μg/ml: 35.5
[5] = Table 5, 5 μg/ml, 0 μg/ml: 35.5
[6] = Table 5, 10 μg/ml, 0 μg/ml: 35.5
[7] = Table 5, 20 μg/ml, 0 μg/ml: 35.5
[8] = Table 5, .31 μg/ml, 0 μg/ml: 35.5
[9] = Table 5, .63 μg/ml, 0 μg/ml: 35.5

Structure (SMILES): CCCCCCC(=O)OCC1(O)OC(C2CC(C)C(C3(C)CCC(C4(C)CCC5(CC(O)C(C)C(C(C)C(OC(=O)CC)C(C)C(=O)O)O5)O4)O3)O2)C(C)CC1C (stereo not drawn) [L. C7, laidlomycin heptanoate]
- Lactic Acid Accumulation ([1]; 1.25 μg/ml): 1.90 µmol/mL
- Lactic Acid Accumulation ([1]; 2.5 μg/ml): 1.32 µmol/mL
- Lactic Acid Accumulation ([1]; 5 μg/ml): 1.16 µmol/mL
- Lactic Acid Accumulation ([1]; 10 μg/ml): 1.46 µmol/mL
- Lactic Acid Accumulation ([1]; 20 μg/ml): 1.94 µmol/mL
- Lactic Acid Accumulation ([1]; .31 μg/ml): 38.37 µmol/mL
- Lactic Acid Accumulation ([1]; .63 μg/ml): 14.12 µmol/mL
- % Propionic Acid [2, 3]: 46.2%
- % Propionic Acid [2, 4]: 46.9%
- % Propionic Acid [2, 5]: 48.4%
- % Propionic Acid [2, 6]: 48.1%
- % Propionic Acid [2, 7]: 47.2%
- % Propionic Acid [2, 8]: 41.4%
- % Propionic Acid [2, 9]: 45.3%

Structure (SMILES): CCCCCCCC(=O)OCC1(O)OC(C2CC(C)C(C3(C)CCC(C4(C)CCC5(CC(O)C(C)C(C(C)C(OC(=O)CC)C(C)C(=O)O)O5)O4)O3)O2)C(C)CC1C (stereo not drawn) [L. C8, laidlomycin octanoate]
- Lactic Acid Accumulation ([1]; 1.25 μg/ml): 1.21 µmol/mL
- Lactic Acid Accumulation ([1]; 2.5 μg/ml): 1.31 µmol/mL
- Lactic Acid Accumulation ([1]; 5 μg/ml): 1.27 µmol/mL
- Lactic Acid Accumulation ([1]; 10 μg/ml): 1.39 µmol/mL
- Lactic Acid Accumulation ([1]; 20 μg/ml): 2.14 µmol/mL
- Lactic Acid Accumulation ([1]; .31 μg/ml): 41.96 µmol/mL
- Lactic Acid Accumulation ([1]; .63 μg/ml): 9.41 µmol/mL
- % Propionic Acid [2, 3]: 46.4%
- % Propionic Acid [2, 4]: 47.3%
- % Propionic Acid [2, 5]: 48.2%
- % Propionic Acid [2, 6]: 47.5%
- % Propionic Acid [2, 7]: 49.4%
- % Propionic Acid [2, 8]: 42.7%
- % Propionic Acid [2, 9]: 43.9%

Structure (SMILES): CCCCCCCCCC(=O)OCC1(O)OC(C2CC(C)C(C3(C)CCC(C4(C)CCC5(CC(O)C(C)C(C(C)C(OC(=O)CC)C(C)C(=O)O)O5)O4)O3)O2)C(C)CC1C (stereo not drawn) [L. C10, laidlomycin decanoate]
- Lactic Acid Accumulation ([1]; 1.25 μg/ml): 0.84 µmol/mL
- Lactic Acid Accumulation ([1]; 2.5 μg/ml): 1.20 µmol/mL
- Lactic Acid Accumulation ([1]; 5 μg/ml): 0.94 µmol/mL
- Lactic Acid Accumulation ([1]; 10 μg/ml): 0.94 µmol/mL
- Lactic Acid Accumulation ([1]; 20 μg/ml): 0.96 µmol/mL
- Lactic Acid Accumulation ([1]; .31 μg/ml): 36.86 µmol/mL
- Lactic Acid Accumulation ([1]; .63 μg/ml): 30.78 µmol/mL
- % Propionic Acid [2, 3]: 45.5%
- % Propionic Acid [2, 4]: 47.1%
- % Propionic Acid [2, 5]: 46.7%
- % Propionic Acid [2, 6]: 46.6%
- % Propionic Acid [2, 7]: 48.1%
- % Propionic Acid [2, 8]: 39.9%
- % Propionic Acid [2, 9]: 43.6%

Structure (SMILES): CCCCCCCCCCCC(=O)OCC1(O)OC(C2CC(C)C(C3(C)CCC(C4(C)CCC5(CC(O)C(C)C(C(C)C(OC(=O)CC)C(C)C(=O)O)O5)O4)O3)O2)C(C)CC1C (stereo not drawn) [L. C12, laidlomycin dodecanoate]
- Lactic Acid Accumulation ([1]; 1.25 μg/ml): 11.19 µmol/mL
- Lactic Acid Accumulation ([1]; 2.5 μg/ml): 1.04 µmol/mL
- Lactic Acid Accumulation ([1]; 5 μg/ml): 3.32 µmol/mL
- Lactic Acid Accumulation ([1]; 10 μg/ml): 2.16 µmol/mL
- Lactic Acid Accumulation ([1]; 20 μg/ml): 1.65 µmol/mL
- Lactic Acid Accumulation ([1]; .31 μg/ml): 34.90 µmol/mL
- Lactic Acid Accumulation ([1]; .63 μg/ml): 38.01 µmol/mL
- % Propionic Acid [2, 3]: 45.3%
- % Propionic Acid [2, 4]: 46.1%
- % Propionic Acid [2, 5]: 46.8%
- % Propionic Acid [2, 6]: 47.7%
- % Propionic Acid [2, 7]: 48.0%
- % Propionic Acid [2, 8]: 42.0%
- % Propionic Acid [2, 9]: 43.8%

Structure (SMILES): CCCCCCCCCCCCCCCCCC(=O)OCC1(O)OC(C2CC(C)C(C3(C)CCC(C4(C)CCC5(CC(O)C(C)C(C(C)C(OC(=O)CC)C(C)C(=O)O)O5)O4)O3)O2)C(C)CC1C (stereo not drawn) [L. C18, laidlomycin stearate]
- Lactic Acid Accumulation (μ mol/ml) ([1]; 1.25 μg/ml): 48.87 μ mol/ml
- Lactic Acid Accumulation (μ mol/ml) ([1]; 2.5 μg/ml): 52.51 μ mol/ml
- Lactic Acid Accumulation (μ mol/ml) ([1]; 5 μg/ml): 46.20 μ mol/ml
- Lactic Acid Accumulation (μ mol/ml) ([1]; 10 μg/ml): 37.83 μ mol/ml
- Lactic Acid Accumulation (μ mol/ml) ([1]; 20 μg/ml): 29.93 μ mol/ml
- Lactic Acid Accumulation (μ mol/ml) ([1]; .313 μg/ml): 50.29 μ mol/ml
- Lactic Acid Accumulation (μ mol/ml) ([1]; .625 μg/ml): 52.57 μ mol/ml
- % Propionic Acid ([2]; Table 7, 1.25 μg/ml, 0 μg/ml: 36.1): 40.0%
- % Propionic Acid ([2]; Table 7, 2.5 μg/ml, 0 μg/ml: 36.1): 41.6%
- % Propionic Acid ([2]; Table 7, 5 μg/ml, 0 μg/ml: 36.1): 44.6%
- % Propionic Acid ([2]; Table 7, 10 μg/ml, 0 μg/ml: 36.1): 45.5%
- % Propionic Acid ([2]; Table 7, 20 μg/ml, 0 μg/ml: 36.1): 45.8%
- % Propionic Acid ([2]; Table 7, .313 μg/ml, 0 μg/ml: 36.1): 37.1%
- % Propionic Acid ([2]; Table 7, .625 μg/ml, 0 μg/ml: 36.1): 37.6%

Structure (SMILES): CCC(=O)OC(C(C)C(=O)O)C(C)C1OC2(CCC(C)(C3CCC(C)(C4OC(C5OC(O)(COC(=O)C(C)C)C(C)CC5C)CC4C)O3)O2)CC(O)C1C (stereo not drawn) [L. iso C4, laidlomycin isobutyrate]
- activity at 1.25 µg/mL ([1]; Bos taurus, read-out: Accumulation of Lactic Acid - % of Control, Table 4, 1.25 μg/ml): 12%
- activity at 5 µg/mL ([1]; Bos taurus, read-out: Accumulation of Lactic Acid - % of Control, Table 4, 5 μg/ml): 13%
- activity at 20 µg/mL ([1]; Bos taurus, read-out: Accumulation of Lactic Acid - % of Control, Table 4, 20 μg/ml): 16%
- activity at 0.31 µg/mL ([1]; Bos taurus, read-out: Accumulation of Lactic Acid - % of Control, Table 4, .31 μg/ml): 37%
- % Propionic Acid ([2]; Table 3, 1.25 μg/ml, 0 μg/ml: 28.5): 39.6%
- % Propionic Acid ([2]; Table 3, 5 μg/ml, 0 μg/ml: 28.5): 43.9%
- % Propionic Acid ([2]; Table 3, 20 μg/ml, 0 μg/ml: 28.5): 47.5%
- % Propionic Acid ([2]; Table 3, .31 μg/ml, 0 μg/ml: 28.5): 34.3%
